For this test, the target named is T1, human IL-17AA (Homo sapiens, UniProt Q16552).
T1 construct: host or cells: HEK (human embryonic kidney) cells
T1 sequence (Q16552 24-155) 1: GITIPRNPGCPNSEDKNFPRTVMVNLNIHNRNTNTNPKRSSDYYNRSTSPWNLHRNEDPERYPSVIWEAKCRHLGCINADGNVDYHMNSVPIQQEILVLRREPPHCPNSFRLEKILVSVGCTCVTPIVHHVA
T1 sequence (Q16552 24-155) 2: T1 sequence (Q16552 24-155) 1
Kind of test: IL-8 release assay in human epithelial keratinocytes adult (HEKa). Format: cell-based. Particulars: 3 ng/ml human IL-17AA + 10 ng/ml human TNFalpha, 68-72 h, IL-8 by HTRF, read-out: Rel EC50 L-8 release assay. An outline of the steps: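 IL-8 secretion, quantified by HTRF (665/620 nm) as percent of controls, served as the readout after 68–72 h culture of HEKa cells with compound plus IL-17AA (3 ng/ml final) and TNF-alpha (10 ng/ml final). Four-parameter logistic curves gave relative IC50 and Emax.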
Background: Time-resolved FRET reads energy transfer from a long-lived donor to a nearby acceptor.

The EC50 is the concentration that produces a half-maximal response. Consider `Cc1ncn(C)c1-c1ccc(NC(=O)[C@H](Cc2cc(-c3ccnc(N4CCN(C)CC4)c3)ccc2Cl)NC(=O)c2ccnn2C)cc1` [Example 213, N-[(1S)-1-[[2-chloro-5-[2-(4-methylpiperazin-1-yl)-4-pyridyl]phenyl]methyl]-2-[4-(3,5-dimethylimidazol-4-yl)anilino]-2-oxo-ethyl]-2-methyl-pyrazole-3-carboxamide], for which the EC50 is 100 to 1000 nM.

`Cc1n[nH]c(C)c1-c1ccc(NC(=O)[C@@H](NC(=O)c2ccnn2C)[C@@H]2CCCc3ccc(-c4ccc5c(c4)CCNC5)cc32)cc1` [Example 38, N-[(1S)-2-[4-(3,5-dimethyl-1H-pyrazol-4-yl)anilino]-2-oxo-1-[(1R)-7-(1,2,3,4-tetrahydroisoquinolin-6-yl)tetralin-1-yl]ethyl]-2-methyl-pyrazole-3-carboxamide]: the EC50 is below 100 nM.

`Cc1nocc1C(=O)N[C@@H](Cc1cc(-c2ccnc(C(O)C3CC3)c2)ccc1Cl)C(=O)Nc1ccc(-c2cncn2C)cc1` (stereo partly drawn) [Example 123, N-[(1S)-1-[[2-chloro-5-[2-[cyclopropyl(hydroxy)methyl]-4-pyridyl]phenyl]methyl]-2-[4-(3-methylimidazol-4-yl)anilino]-2-oxo-ethyl]-3-methyl-isoxazole-4-carboxamide]: the EC50 was below 100 nM.

Take `Cc1n[nH]c(C)c1-c1ccc(NC(=O)[C@@H](NC(=O)C2(F)CC2)[C@@H]2CCc3ccc(-c4ccc(=O)n(C(C)C)c4)cc32)cc1` [Example 7, N-[(1S)-2-[4-(3,5-dimethyl-1H-pyrazol-4-yl)anilino]-1-[(1R)-6-(1-isopropyl-6-oxo-3-pyridyl)indan-1-yl]-2-oxo-ethyl]-1-fluoro-cyclopropanecarboxamide]: the EC50 is below 100 nM.

As for `Cc1ncnn1-c1ccc(NC(=O)C(Cc2cc(-c3ccc(=O)n(C(C)C)c3)ccc2Cl)NC(=O)c2ccnn2C)cc1` (stereo not shown) [Example 88, N-[1-[[2-chloro-5-(1-isopropyl-6-oxo-3-pyridyl)phenyl]methyl]-2-[4-(5-methyl-1,2,4-triazol-1-yl)anilino]-2-oxo-ethyl]-2-methyl-pyrazole-3-carboxamide], the concentration for a half-maximal effect (EC50) is above 1000 nM.

Consider `CC(C)n1cc(-c2ccc(Cl)c(C[C@H](NC(=O)c3ccnn3C)C(=O)Nc3ccc(-c4cncn4C)c(F)c3)c2)ccc1=O` [Example 135, N-[(1S)-1-[[2-chloro-5-(1-isopropyl-6-oxo-3-pyridyl)phenyl]methyl]-2-[3-fluoro-4-(3-methylimidazol-4-yl)anilino]-2-oxo-ethyl]-2-methyl-pyrazole-3-carboxamide], for which the concentration giving a half-maximal response (EC50) was 100 to 1000 nM.

`Cc1cnn(C)c1-c1ccc(NC(=O)[C@H](Cc2cc(-c3ccc(=O)n(C(C)C)c3)ccc2Cl)NC(=O)c2cocn2)cc1` [Example 333, N-[(1S)-1-[[2-chloro-5-(1-isopropyl-6-oxo-3-pyridyl)phenyl]methyl]-2-[4-(2,4-dimethylpyrazol-3-yl)anilino]-2-oxo-ethyl]oxazole-4-carboxamide]: the concentration giving a half-maximal response (EC50) was above 1000 nM.

Regarding `C[C@@H]1CN(c2cc(-c3ccc(Cl)c(C[C@H](NC(=O)c4ccnn4C)C(=O)Nc4ccc(-c5cncn5C)cc4)c3)ccn2)CCN1` [Example 210, N-[(1S)-1-[[2-chloro-5-[2-[(3R)-3-methylpiperazin-1-yl]-4-pyridyl]phenyl]methyl]-2-[4-(3-methylimidazol-4-yl)anilino]-2-oxo-ethyl]-2-methyl-pyrazole-3-carboxamide], the EC50 fell in the range of 100 to 1000 nM.

Take `Cn1cnnc1-c1ccc(NC(=O)C(Cc2cc(-c3cccc(OC(F)(F)F)c3)ccc2Cl)NC(=O)c2ccnn2C)cc1` (stereo not shown) [Example 111, N-[1-[[2-chloro-5-[3-(trifluoromethoxy)phenyl]phenyl]methyl]-2-[4-(4-methyl-1,2,4-triazol-3-yl)anilino]-2-oxo-ethyl]-2-methyl-pyrazole-3-carboxamide]: the concentration for a half-maximal effect (EC50) lay within 100 to 1000 nM.

On to `Cc1ncn(C)c1-c1ccc(NC(=O)[C@H](Cc2cc(-c3ccc(=O)n(C(C)C)c3)ccc2Cl)NC(=O)OC2CC2)cc1` [Example 201, cyclopropyl N-[(1S)-1-[[2-chloro-5-(1-isopropyl-6-oxo-3-pyridyl)phenyl]methyl]-2-[4-(3,5-dimethylimidazol-4-yl)anilino]-2-oxo-ethyl]carbamate], for which the 50% effective concentration (EC50) lay within 100 to 1000 nM.

With `Cc1nncn1-c1ccc(NC(=O)C(Cc2cc(-c3ccc(=O)n(C(C)C)c3)ccc2Cl)NC(=O)c2ccnn2C)cc1` (stereo not shown) [Example 77, N-[1-[[2-chloro-5-(1-isopropyl-6-oxo-3-pyridyl)phenyl]methyl]-2-[4-(3-methyl-1,2,4-triazol-4-yl)anilino]-2-oxo-ethyl]-2-methyl-pyrazole-3-carboxamide], the EC50 was above 1000 nM.

As for `CC(C)n1cc(-c2ccc3c(c2)[C@H]([C@H](NC(=O)c2ccnn2C)C(=O)Nc2ccc(-c4cncn4C)cc2)CCC3)ccc1=O` [Example 44, N-[(1S)-1-[(1R)-7-(1-isopropyl-6-oxo-3-pyridyl)tetralin-1-yl]-2-[4-(3-methylimidazol-4-yl)anilino]-2-oxo-ethyl]-2-methyl-pyrazole-3-carboxamide], the EC50 was 100 to 1000 nM.

Take `Cn1cncc1-c1ccc(NC(=O)[C@H](Cc2cc(-c3cccc([C@H]4COCCN4)c3)ccc2Cl)NC(=O)c2ccnn2C)cc1` [Example 215, N-[(1S)-1-[[2-chloro-5-[3-[(3S)-morpholin-3-yl]phenyl]phenyl]methyl]-2-[4-(3-methylimidazol-4-yl)anilino]-2-oxo-ethyl]-2-methyl-pyrazole-3-carboxamide]: the EC50 was 100 to 1000 nM.

For the compound `Cc1nccn1-c1ccc(NC(=O)[C@@H](NC(=O)c2ccnn2C)[C@@H]2CCCc3ccc(-c4ccnc(N5C[C@H]6C[C@@H]5CO6)c4)cc32)cc1` [Example 403, 2-methyl-N-[(1S)-2-[4-(2-methylimidazol-1-yl)anilino]-1-[(1R)-7-[2-[(1R,4R)-2-oxa-5-azabicyclo[2.2.1]heptan-5-yl]-4-pyridyl]tetralin-1-yl]-2-oxo-ethyl]pyrazole-3-carboxamide], the concentration giving a half-maximal response (EC50) is 100 to 1000 nM.

Consider `Cc1ncn(C)c1-c1ccc(NC(=O)[C@H](Cc2cc(-c3cccc(C(C)(C)N)c3)ccc2Cl)NC(=O)c2ccnn2C)cc1` [Example 203, N-[(1S)-1-[[5-[3-(1-amino-1-methyl-ethyl)phenyl]-2-chloro-phenyl]methyl]-2-[4-(3,5-dimethylimidazol-4-yl)anilino]-2-oxo-ethyl]-2-methyl-pyrazole-3-carboxamide], for which the concentration giving a half-maximal response (EC50) is 100 to 1000 nM.

Regarding `Cc1cnn(C)c1-c1ccc(NC(=O)[C@@H](NC(=O)c2ccnn2C)[C@@H](c2cccc(-c3cc(N4C[C@@H]5C[C@H]4CO5)ncn3)c2)C2CC2)cc1` [Example 351, N-[(1S)-1-[(R)-cyclopropyl-[3-[6-[(1S,4S)-2-oxa-5-azabicyclo[2.2.1]heptan-5-yl]pyrimidin-4-yl]phenyl]methyl]-2-[4-(2,4-dimethylpyrazol-3-yl)anilino]-2-oxo-ethyl]-2-methyl-pyrazole-3-carboxamide], the EC50 lay in the range of 100 to 1000 nM.

For `Cc1n[nH]c(C)c1-c1ccc(NC(=O)[C@@H](NC(=O)c2ccnn2C)[C@@H]2CCc3ccc(-c4cnn(C(C)(C)CN)c4)cc32)cc1` [Example 22, N-[(1S)-1-[(1R)-6-[1-(2-amino-1,1-dimethyl-ethyl)pyrazol-4-yl]indan-1-yl]-2-[4-(3,5-dimethyl-1H-pyrazol-4-yl)anilino]-2-oxo-ethyl]-2-methyl-pyrazole-3-carboxamide], the concentration giving a half-maximal response (EC50) was 100 to 1000 nM.

In the case of `Cc1nocc1-c1ccc(NC(=O)C(Cc2cc(-c3ccc(=O)n(C(C)C)c3)ccc2Cl)NC(=O)c2ccnn2C)cc1` (stereo not shown) [Example 78, N-[1-[[2-chloro-5-(1-isopropyl-6-oxo-3-pyridyl)phenyl]methyl]-2-[4-(3-methylisoxazol-4-yl)anilino]-2-oxo-ethyl]-2-methyl-pyrazole-3-carboxamide], the EC50 lay within 100 to 1000 nM.

As for `Cn1cncc1-c1ccc(NC(=O)C(Cc2cc(-c3ccnc(N4CC(CO)C4)c3)ccc2Cl)NC(=O)c2ccnn2C)cc1` (stereo not shown) [Example 190, N-[1-[[2-chloro-5-[2-[3-(hydroxymethyl)azetidin-1-yl]-4-pyridyl]phenyl]methyl]-2-[4-(3-methylimidazol-4-yl)anilino]-2-oxo-ethyl]-2-methyl-pyrazole-3-carboxamide], the EC50 lay within 100 to 1000 nM.

As to `Cn1cnnc1-c1ccc(NC(=O)C(Cc2cc(-c3ccc(O)c(C(=O)N4CCC4)c3)ccc2Cl)NC(=O)c2ccnn2C)cc1` (stereo not shown) [Example 172, N-[1-[[5-[3-(azetidine-1-carbonyl)-4-hydroxy-phenyl]-2-chloro-phenyl]methyl]-2-[4-(4-methyl-1,2,4-triazol-3-yl)anilino]-2-oxo-ethyl]-2-methyl-pyrazole-3-carboxamide], the EC50 is above 1000 nM.

For `Cc1n[nH]c(C)c1-c1ccc(NC(=O)[C@@H](NC(=O)C2(F)CC2)[C@@H]2CCc3ccc(-c4ccnc(N5C[C@H]6C[C@@H]5CO6)c4)cc32)cc1` [Example 362, N-[(1S)-2-[4-(3,5-dimethyl-1H-pyrazol-4-yl)anilino]-1-[(1R)-6-[2-[(1R,4R)-2-oxa-5-azabicyclo[2.2.1]heptan-5-yl]-4-pyridyl]indan-1-yl]-2-oxo-ethyl]-1-fluoro-cyclopropanecarboxamide], the EC50 is below 100 nM.

For the compound `Cc1[nH]nnc1-c1ccc(NC(=O)C(Cc2cc(-c3ccc(=O)n(C(C)C)c3)ccc2Cl)NC(=O)c2ccnn2C)cc1` (stereo not shown) [Example 98, N-[1-[[2-chloro-5-(1-isopropyl-6-oxo-3-pyridyl)phenyl]methyl]-2-[4-(5-methyl-1H-triazol-4-yl)anilino]-2-oxo-ethyl]-2-methyl-pyrazole-3-carboxamide], the EC50 is 100 to 1000 nM.

Source of the values: US20220162191A1, “SMALL MOLECULE MODULATORS OF IL-17” (LEO PHARMA A/S, priority 2019, published 2022).
